Test results reported in US9783537B2, “3-(4-ethylnylphenyl) pyridopyrimidinone compounds and process for preparation thereof useful as potential anticancer agents” (Council of Scientific & Industrial Research, priority 2013, dated 2017).
Where two headings read alike, the source gives them in different places.

What was measured:
U251 = assay: SRB 48 h growth assay, CNS U251; type: cell-based, human; conditions: for GI50 / CC50: Homo sapiens; for CC50: U-251, read-out: Log10 LC50 (converted)
HCT-15 = assay: SRB 48 h growth assay, Colon HCT-15; type: cell-based, human; conditions: HCT-15, Colon; for GI50 / CC50: Homo sapiens; for CC50: read-out: Log10 LC50 (converted)
MALME-3M = assay: SRB 48 h growth assay, Melanoma MALME-3M; type: cell-based, human; conditions: for GI50 / CC50: Homo sapiens; for CC50: read-out: Log10 LC50 (converted)
NCI-H460 = assay: SRB 48 h growth assay, Non-small Cell Lung NCI-H460; type: cell-based, human
UO-31 = assay: SRB 48 h growth assay, Renal UO-31; type: cell-based, human; conditions: UO-31, Renal; for GI50 / CC50: Homo sapiens; for CC50: read-out: Log10 LC50 (converted)
IGROV1 = assay: SRB 48 h growth assay, Ovarian IGROV1; type: cell-based, human; conditions: for GI50 / CC50: Homo sapiens; for CC50: IGROV-1, read-out: Log10 LC50 (converted)
SK-MEL-28 = assay: SRB 48 h growth assay, Melanoma SK-MEL-28; type: cell-based, human; conditions: SK-MEL-28, Melanoma; for GI50 / CC50: Homo sapiens; for CC50: read-out: Log10 LC50 (converted)
T-47D = assay: SRB 48 h growth assay, Breast T-47D; type: cell-based, human; conditions: for GI50 / CC50: Homo sapiens, T47D; for CC50: read-out: Log10 LC50 (converted)
A498 = assay: SRB 48 h growth assay, Renal A498; type: cell-based, human; conditions: for GI50 / CC50: Homo sapiens; for CC50: read-out: Log10 LC50 (converted)
CAKI-1 = assay: SRB 48 h growth assay, Renal CAKI-1; type: cell-based, human; conditions: CAKI-1, Renal; for GI50 / CC50: Homo sapiens; for CC50: read-out: Log10 LC50 (converted)
SF-539 = assay: SRB 48 h growth assay, CNS SF-539; type: cell-based, human; conditions: SF-539, CNS; for GI50 / CC50: Homo sapiens; for CC50: read-out: Log10 LC50 (converted)
HCC-2998 = assay: SRB 48 h growth assay, Colon HCC-2998; type: cell-based, human; conditions: HCC-2998, Colon; for GI50 / CC50: Homo sapiens; for CC50: read-out: Log10 LC50 (converted)
[1] = system: eight renal cancer cell line (786-0, A498, ACHN, CAKI-1, SN12C, TK-10, UO-31 and RXF 393); assay: in vitro anticancer activity, renal panel; type: cell-based; conditions: Homo sapiens; eight renal cancer cell lines, exposure at least 48 h; read-out: in vitro anticancer activity, range over panel
SR = assay: SRB 48 h growth assay, Leukemia SR; type: cell-based, human
[2] = U-251, read-out: Growth Inhibition GI50
[3] = U-251, read-out: Log10 GI50 (converted)
[4] = read-out: Growth Inhibition GI50
[5] = read-out: Log10 GI50 (converted)
[6] = Homo sapiens, read-out: Growth Inhibition GI50
[7] = Homo sapiens, read-out: Log10 GI50 (converted)
[8] = IGROV-1, read-out: Growth Inhibition GI50
[9] = IGROV-1, read-out: Log10 GI50 (converted)
[10] = Homo sapiens, read-out: Log10 LC50 (converted)

Structure (SMILES): C#Cc1ccc(-n2c(/C=C/c3cc(OC)c(OC)c(OC)c3)nc3ncccc3c2=O)cc1 [4q, (E)-3-(4-Ethynylphenyl)-2-(3,4,5-trimethoxystyryl)pyrido[2,3-d]pyrimidin-4(3H)-one]
- Log10 TGI50 (U251): >−4.00
- GI50 (U251; [2]): 9.93 µM
- GI50 (U251; [3]): 10 µM
- CC50 (U251): > 100 µM
- Log10 TGI50 (HCT-15): >−4.00
- GI50 (HCT-15; [4]): 5.58 µM
- GI50 (HCT-15; [5]): 5.62 µM
- CC50 (HCT-15): > 100 µM
- Log10 TGI50 (MALME-3M): −4.15
- GI50 (MALME-3M; [4]): 9.74 µM
- GI50 (MALME-3M; [5]): 9.77 µM
- CC50 (MALME-3M): > 100 µM
- Log10 TGI50 (NCI-H460): −4.60
- GI50 (NCI-H460; [6]): 4.11 µM
- GI50 (NCI-H460; [7]): 4.07 µM
- GI50 (UO-31; [4]): 4.09 µM
- GI50 (UO-31; [5]): 4.07 µM
- CC50 (UO-31): > 100 µM
- Log10 TGI50 (UO-31): >−4.00
- Log10 TGI50 (IGROV1): >−4.00
- GI50 (IGROV1; [8]): 6.08 µM
- GI50 (IGROV1; [9]): 6.03 µM
- CC50 (IGROV1): > 100 µM
- GI50 (SK-MEL-28; [4]): 34.6 µM
- GI50 (SK-MEL-28; [5]): 34.7 µM
- CC50 (SK-MEL-28): > 100 µM
- Log10 TGI50 (SK-MEL-28): >−4.00
- Log10 TGI50 (T-47D): >−4.00
- GI50 (T-47D; [4]): 5.85 µM
- GI50 (T-47D; [5]): 5.89 µM
- CC50 (T-47D): > 100 µM
- Log10 TGI50 (A498): −5.01
- GI50 (A498; [4]): 2630 nM
- GI50 (A498; [5]): 2630 nM
- CC50 (A498): > 100 µM
- Log10 TGI50 (CAKI-1): >−4.00
- GI50 (CAKI-1; [4]): 6.07 µM
- GI50 (CAKI-1; [5]): 6.03 µM
- CC50 (CAKI-1): > 100 µM
- GI50 (SF-539; [4]): 4.57 µM
- GI50 (SF-539; [5]): 4.57 µM
- CC50 (SF-539): > 100 µM
- Log10 TGI50 (SF-539): −4.42
- Log10 TGI50 (HCC-2998): >−4.00
- GI50 (HCC-2998; [4]): 27.5 µM
- GI50 (HCC-2998; [5]): 27.5 µM
- CC50 (HCC-2998): > 100 µM

Structure (SMILES): C#Cc1ccc(-n2c(/C=C/c3ccc4ccccc4c3)nc3ncccc3c2=O)cc1 [4s, (E)-3-(4-Ethynylphenyl)-2-(2-(naphthalen-2-yl)vinyl)pyrido[2,3-d]pyrimidin-4(3H)-one]
- Log10 TGI50 (U251): >−4.00
- GI50 (U251; [2]): 3.69 µM
- GI50 (U251; [3]): 3.72 µM
- CC50 (U251): > 100 µM
- GI50 [1]: 220 to 430 nM
- Log10 TGI50 (HCT-15): >−4.00
- GI50 (HCT-15; [4]): 2.91 µM
- GI50 (HCT-15; [5]): 2.88 µM
- CC50 (HCT-15): > 100 µM
- Log10 TGI50 (MALME-3M): >−4.00
- GI50 (MALME-3M; [4]): 4.97 µM
- GI50 (MALME-3M; [5]): 6.31 µM
- CC50 (MALME-3M): > 100 µM
- Log10 TGI50 (NCI-H460): >−4.00
- GI50 (NCI-H460; [6]): 2.88 µM
- GI50 (NCI-H460; [7]): 2.88 µM
- LC50 (NCI-H460; [10]): > 100 µM
- GI50 (UO-31; [4]): 3.11 µM
- GI50 (UO-31; [5]): 3.09 µM
- CC50 (UO-31): > 100 µM
- Log10 TGI50 (UO-31): >−4.00
- Log10 TGI50 (IGROV1): >−4.00
- GI50 (IGROV1; [8]): 2.92 µM
- GI50 (IGROV1; [9]): 2.95 µM
- CC50 (IGROV1): > 100 µM
- GI50 (SK-MEL-28; [4]): 4.33 µM
- GI50 (SK-MEL-28; [5]): 4.37 µM
- CC50 (SK-MEL-28): > 100 µM
- Log10 TGI50 (SK-MEL-28): >−4.00
- Log10 TGI50 (T-47D): >−4.00
- GI50 (T-47D; [4]): 3.9 µM
- GI50 (T-47D; [5]): 3.89 µM
- CC50 (T-47D): > 100 µM
- Log10 TGI50 (SR): >−4.00
- GI50 (SR; [6]): 1400 nM
- GI50 (SR; [7]): 1410 nM
- CC50 (SR; [10]): > 100 µM
- Log10 TGI50 (A498): −5.23
- GI50 (A498; [4]): 1690 nM
- GI50 (A498; [5]): 1700 nM
- CC50 (A498): 5.89 µM
- Log10 TGI50 (CAKI-1): >−4.31
- GI50 (CAKI-1; [4]): 2.98 µM
- GI50 (CAKI-1; [5]): 2.95 µM
- CC50 (CAKI-1): > 100 µM
- GI50 (SF-539; [4]): 2.91 µM
- GI50 (SF-539; [5]): 2.88 µM
- CC50 (SF-539): > 100 µM
- Log10 TGI50 (SF-539): >−4.00
- Log10 TGI50 (HCC-2998): −5.30
- GI50 (HCC-2998; [4]): 2.32 µM
- GI50 (HCC-2998; [5]): 2.29 µM
- CC50 (HCC-2998): 5.01 µM
